# Reference: patent US20220016060A1, “USE OF SODIUM 2-(3-PENTYLPHENYL)ACETATE IN THE TREATMENT OF ALSTRÖM SYNDROME” (LIMINAL BIOSCIENCES LIMITED, priority 2018, published 2022)
# Where “and” joins values, the source holds several entries; their conditions need not be identical. Identical values can stand only once. Entries after “also recorded” stand apart in the source; their conditions may differ.
# Assays:
# Type in all cases: in vivo, human
# [1] = system: ALMS patients; assay: Histological examination of adipocyte tissue artery (perivascular adipose tissue); conditions: an ALMS subject; after 24 weeks of treatment with 800 mg; FIG. 3B
# Method: (§1) The study was a Phase 2, single-centre, single-arm, open-label study of sodium 2-(3-pentylphenyl)acetate administered at a total daily oral dose of 800 mg for up to 72 weeks in subjects with ALMS was undertaken. The initial duration of the study was 24 weeks, and subjects were offered to enrol into an extension phase of 36 or 48 weeks. The schedule of study procedures for the enrolment, intervention, and assessments for participants is outlined in FIG. 1. Sodium 2-(3-pentylphenyl)acetate was formulated in soft gelatine capsules containing 200 mg of Sodium 2-(3-pentylphenyl)acetate (amorphous powder) per capsule, polyethylene glycol 400, National Formulary (NF), hydrochloric acid (for pH adjustment), and water. Baseline histological examination of an adipocyte tissue artery (perivascular adipose tissue) in an ALMS subject was characterized by signs of dystrophy, homogenized blurred cytoplasm in smooth muscle cells, and nuclei with irregular shape (FIG. 3A).
# [2] = system: ALMS patients; assay: Fasting insulin; conditions: for Change from Baseline Fasting Insulin, Mean / Change from Baseline Fasting Insulin, Median: 800 mg daily oral; for decrease of fasting insulin from baseline: Subject 826-001-003
# Method: as §1, with “water.” for “water. Baseline histological examination of an adipocyte tissue artery (perivascular adipose tissue) in an ALMS subject was characterized by signs of dystrophy, homogenized blurred cytoplasm in smooth muscle cells, and nuclei with irregular shape (FIG. 3A).”
# [3] = system: ALMS patients; assay: Histological examination of adipocyte tissue, average adipocyte area
# Method: The study was a Phase 2, single-centre, single-arm, open-label study of sodium 2-(3-pentylphenyl)acetate administered at a total daily oral dose of 800 mg for up to 72 weeks in subjects with ALMS was undertaken. The initial duration of the study was 24 weeks, and subjects were offered to enrol into an extension phase of 36 or 48 weeks. The schedule of study procedures for the enrolment, intervention, and assessments for participants is outlined in FIG. 1. Sodium 2-(3-pentylphenyl)acetate was formulated in soft gelatine capsules containing 200 mg of Sodium 2-(3-pentylphenyl)acetate (amorphous powder) per capsule, polyethylene glycol 400, National Formulary (NF), hydrochloric acid (for pH adjustment), and water. Histological examination of adipocyte tissue in an ALMS subject (before study drug treatment) was characterized by hypertrophy and coalescence of adipocytes, forming giant vesicular vacuolation/steatosis (FIG. 2A). […] Decreases in average adipocyte area from baseline ranged from 11% to 26%. Of note, the largest increase in average adipocyte area from baseline occurred in Subject 826-001-012 (25%), who had ongoing medical histories of hypothyroidism, myocardial ischemia, T2D, chronic kidney disease, and dyslipidemia. This subject was also characterized as obese with a baseline BMI of 38.13 kg/m^2.
# [4] = system: ALMS patients; assay: Enhanced Liver Fibrosis (ELF) blood test; design: increase in ELF test score from baseline / Change from Baseline ELF Test, Median / ELF Test score: scale not given here; conditions: for Change from Baseline ELF Test, Mean (SD) / Change from Baseline ELF Test, Median / ELF Test score / Severity of Liver Fibrosis Based on ELF Test: 800 mg daily oral; for ELF Test score / Severity of Liver Fibrosis Based on ELF Test: individual subjects
# Method: The study was a Phase 2, single-centre, single-arm, open-label study of sodium 2-(3-pentylphenyl)acetate administered at a total daily oral dose of 800 mg for up to 72 weeks in subjects with ALMS was undertaken. The initial duration of the study was 24 weeks, and subjects were offered to enrol into an extension phase of 36 or 48 weeks. The schedule of study procedures for the enrolment, intervention, and assessments for participants is outlined in FIG. 1. Sodium 2-(3-pentylphenyl)acetate was formulated in soft gelatine capsules containing 200 mg of Sodium 2-(3-pentylphenyl)acetate (amorphous powder) per capsule, polyethylene glycol 400, National Formulary (NF), hydrochloric acid (for pH adjustment), and water. The effect of sodium 2-(3-pentylphenyl)acetate on liver histology in ALMS patients was also assessed using the Enhanced Liver Fibrosis (ELF™) blood test. The ELF™ Blood Test combines three serum biomarkers (Hyaluronic acid (HA), Procollagen III amino terminal peptide (PIIINP), and Tissue inhibitor of metalloproteinase 1 (TIMP-1)) which, when correlated, are able to identify a quantifiable level of liver fibrosis.
# [5] = Subject 826-001-001, 204-day break in treatment
# [6] = Subject 826-001-004, 30-day break in treatment
# [7] = 800 mg, Week 24, mean of subjects
# [8] = 800 mg, Week 24, median of subjects
smiles,measurement,setting,value
CCCCCc1cccc(CC(=O)[O-])c1.[Na+] [sodium 2-(3-pentylphenyl)acetate],histological examination of adipocyte tissue artery,[1],the adipocyte tissue artery looked more normal
same,"Change from Baseline Fasting Insulin, Mean","[2]; EP Week 12 (Week 36), N=10",-920.20 pmol/L
same,"Change from Baseline Fasting Insulin, Median","[2]; EP Week 12 (Week 36), N=10",-53.50 pmol/L
same,"Change from Baseline Fasting Insulin, Mean","[2]; EP Week 24 (Week 48), N=9",-1371.78 pmol/L
same,"Change from Baseline Fasting Insulin, Median","[2]; EP Week 24 (Week 48), N=9",-24.00 pmol/L
same,"Change from Baseline Fasting Insulin, Mean","[2]; EP Week 36 (Week 60), N=8",-1191.63 pmol/L
same,"Change from Baseline Fasting Insulin, Median","[2]; EP Week 36 (Week 60), N=8",7.00 pmol/L
same,"Change from Baseline Fasting Insulin, Mean","[2]; EP Week 48 (Week 72), N=3",-3933.00 pmol/L
same,"Change from Baseline Fasting Insulin, Median","[2]; EP Week 48 (Week 72), N=3",193.00 pmol/L
same,increase in fasting insulin from baseline,[2]; [5],420 pmol/L
same,decrease of fasting insulin from baseline,[2]; after 24 weeks,~30%
same,decrease of fasting insulin from baseline,[2]; after 72 weeks,> 96%
same,increase in fasting insulin from baseline,[2]; [6],298 pmol/L
same,increase in fasting insulin from baseline,"[2]; Subject 826-001-007, 32-day break in treatment",1970 pmol/L
same,increase in fasting insulin from baseline,"[2]; Subject 826-001-013, 30-day break in treatment",1160 pmol/L
same,"Change from Baseline Fasting Insulin, Mean","[2]; Week 12, N=12",-18.92 pmol/L
same,"Change from Baseline Fasting Insulin, Median","[2]; Week 12, N=12",9.00 pmol/L
same,"Change from Baseline Fasting Insulin, Mean","[2]; Week 24, N=12",-339.08 pmol/L
same,"Change from Baseline Fasting Insulin, Median","[2]; Week 24, N=12",-86.00 pmol/L
same,Fasting Insulin,"[2]; by-subject listing, ALMS subjects, EP Week 48 (Week 72)",460 pmol/L and 600 pmol/L and 303 pmol/L
same,"Average Adipocyte Area, % Change from Baseline, Mean",[3]; [7],−9%
same,"Average Adipocyte Area, Mean",[3]; [7],5550.7 μm^2
same,"Average Adipocyte Area, % Change from Baseline, Median",[3]; [8],−12%
same,"Average Adipocyte Area, Median",[3]; [8],5195.1 μm^2
same,subjects in whom average adipocyte area decreased from baseline,"[3]; 6/9 subjects, after 24 weeks",66.7%
same,largest increase in average adipocyte area from baseline,"[3]; Subject 826-001-012, after 24 weeks",25%
same,histological examination of adipocyte tissue,"[3]; an ALMS subject, after 24 weeks of treatment with 800 mg, FIG. 2B",more distinct adipocytes were seen that were smaller in size with no observed coalescence
same,subjects in whom ELF test score decreased from baseline,[4]; 6/12 subjects,50.0%
same,subjects in whom severity of liver fibrosis based on the ELF test was stable or improved from baseline,[4]; 10/12 subjects,83.3%
same,"Change from Baseline ELF Test, Mean (SD)","[4]; EP Week 12 (Week 36), N=10",−0.24 (1.056)
same,"Change from Baseline ELF Test, Median","[4]; EP Week 12 (Week 36), N=10",−0.02
same,"Change from Baseline ELF Test, Mean (SD)","[4]; EP Week 24 (Week 48), N=9",−0.22 (1.086)
same,"Change from Baseline ELF Test, Median","[4]; EP Week 24 (Week 48), N=9",−0.13
same,"Change from Baseline ELF Test, Mean (SD)","[4]; EP Week 36 (Week 60), N=8",−0.26 (1.193)
same,"Change from Baseline ELF Test, Median","[4]; EP Week 36 (Week 60), N=8",−0.03
same,change in severity of liver fibrosis based on ELF test,[4]; [5],increase in liver fibrosis from moderate to severe
same,increase in ELF test score from baseline,[4]; [5],1.36
same,increase in ELF test score from baseline,[4]; [6],1.17
same,"Change from Baseline ELF Test, Mean (SD)","[4]; Week 12, N=12",0.02 (1.023)
same,"Change from Baseline ELF Test, Median","[4]; Week 12, N=12",0.24
same,"Change from Baseline ELF Test, Mean (SD)","[4]; Week 24, N=12",−0.26 (0.933)
same,"Change from Baseline ELF Test, Median","[4]; Week 24, N=12",0.06
same,ELF Test score,[4]; EP Week 12 (Week 36),9.13 and 8.68 and 7.68 and 8.19 and 6.80 and 9.92 and 8.48 and 11.58 and 8.75 and 8.73
same,Severity of Liver Fibrosis Based on ELF Test,[4]; EP Week 12 (Week 36),Mod (moderate fibrosis ≥ 7.7 to < 9.8); also recorded: NTM (None to mild fibrosis < 7.7); also recorded: Sev (severe fibrosis ≥ 9.8)
same,ELF Test score,[4]; EP Week 24 (Week 48),10.30 and 8.00 and 6.98 and 7.45 and 6.95 and 8.36 and 11.14 and 8.76 and 8.74
same,Severity of Liver Fibrosis Based on ELF Test,[4]; EP Week 24 (Week 48),Sev (severe fibrosis ≥ 9.8); also recorded: Mod (moderate fibrosis ≥ 7.7 to < 9.8); also recorded: NTM (None to mild fibrosis < 7.7)
same,ELF Test score,[4]; EP Week 36 (Week 60),10.28 and 8.42 and 7.16 and 9.90 and 8.50 and 10.79 and 8.64 and 8.74
same,Severity of Liver Fibrosis Based on ELF Test,[4]; EP Week 36 (Week 60),Sev (severe fibrosis ≥ 9.8); also recorded: Mod (moderate fibrosis ≥ 7.7 to < 9.8); also recorded: NTM (None to mild fibrosis < 7.7)
same,ELF Test score,[4]; Week 12,8.50 and 8.63 and 9.75 and 7.98 and 7.93 and 7.33 and 10.05 and 9.71 and 10.96 and 8.51 and 11.25 and 9.05
same,Severity of Liver Fibrosis Based on ELF Test,[4]; Week 12,Mod (moderate fibrosis ≥ 7.7 to < 9.8); also recorded: NTM (None to mild fibrosis < 7.7); also recorded: Sev (severe fibrosis ≥ 9.8)
same,ELF Test score,[4]; Week 24,9.31 and 9.02 and 8.60 and 7.14 and 7.26 and 7.31 and 10.39 and 8.41 (2×) and 10.69 and 8.47 and 11.29
same,Severity of Liver Fibrosis Based on ELF Test,[4]; Week 24,Mod (moderate fibrosis ≥ 7.7 to < 9.8); also recorded: NTM (None to mild fibrosis < 7.7); also recorded: Sev (severe fibrosis ≥ 9.8)
